≈ marks a conversion by molar mass, not a printed value. *1 amine or outer side, *2 acyl side, *3 side chain or, on linkers, in order; H or OH if unused. Where a SMILES comes first, the peptide text is derived from it. Bridges are numbered along the chain shown (N, C = ends). [ ]: non-standard residue; d: D form. The star is where a group is joined. hTyr(3S-OH,4S-OH,3'-OSO3H) = N[C@H](C(=O)O)[C@H](O)[C@@H](O)c1ccc(O)c(OS(=O)(=O)O)c1; pTerphenylCO(4''-OnC5H11) = CCCCCOc1ccc(-c2ccc(-c3ccc(C(=O)*)cc3)cc2)cc1; Orn(4R-OH,5R-OH) = O=C([C@H](C[C@@H](O)[C@@H](O)N[*:3])N[*:1])[*:2]; hTyr(3S-OH,4S-OH) = N[C@H](C(=O)O)[C@H](O)[C@@H](O)c1ccc(O)cc1; Pro(3S-OH,4S-Me) = C[C@H]1CN[C@H](C(=O)O)[C@H]1O; X1 = CCCCCOc1ccc(-c2cc(-c3ccc(C(=O)*)cc3)no2)cc1; Gln(3R-OH) = NC(=O)C[C@@H](O)[C@H](N)C(=O)O; Hyp = O=C(O)[C@@H]1C[C@@H](O)CN1
Assays:
[1] = Inhibition of glucan synthase in Aspergillus fumigatus ATCC 13073 in presence of 10% human serum
[2] = test system: Aspergillus terreus; assay: Ratio of MIC for Aspergillus flavus to MIC for Aspergillus terreus in presence of 50% human serum; format: functional
[3] = test system: Aspergillus fumigatus; assay: Ratio of MIC for Aspergillus fumigatus to MIC for Aspergillus fumigatus in presence of 50% human serum; format: functional
[4] = target: T1, Glucan synthase (Candida albicans, UniProt O13423); assay: Inhibition of glucan synthase in Candida albicans SC5314
T1 sequence (O13423 whole entry): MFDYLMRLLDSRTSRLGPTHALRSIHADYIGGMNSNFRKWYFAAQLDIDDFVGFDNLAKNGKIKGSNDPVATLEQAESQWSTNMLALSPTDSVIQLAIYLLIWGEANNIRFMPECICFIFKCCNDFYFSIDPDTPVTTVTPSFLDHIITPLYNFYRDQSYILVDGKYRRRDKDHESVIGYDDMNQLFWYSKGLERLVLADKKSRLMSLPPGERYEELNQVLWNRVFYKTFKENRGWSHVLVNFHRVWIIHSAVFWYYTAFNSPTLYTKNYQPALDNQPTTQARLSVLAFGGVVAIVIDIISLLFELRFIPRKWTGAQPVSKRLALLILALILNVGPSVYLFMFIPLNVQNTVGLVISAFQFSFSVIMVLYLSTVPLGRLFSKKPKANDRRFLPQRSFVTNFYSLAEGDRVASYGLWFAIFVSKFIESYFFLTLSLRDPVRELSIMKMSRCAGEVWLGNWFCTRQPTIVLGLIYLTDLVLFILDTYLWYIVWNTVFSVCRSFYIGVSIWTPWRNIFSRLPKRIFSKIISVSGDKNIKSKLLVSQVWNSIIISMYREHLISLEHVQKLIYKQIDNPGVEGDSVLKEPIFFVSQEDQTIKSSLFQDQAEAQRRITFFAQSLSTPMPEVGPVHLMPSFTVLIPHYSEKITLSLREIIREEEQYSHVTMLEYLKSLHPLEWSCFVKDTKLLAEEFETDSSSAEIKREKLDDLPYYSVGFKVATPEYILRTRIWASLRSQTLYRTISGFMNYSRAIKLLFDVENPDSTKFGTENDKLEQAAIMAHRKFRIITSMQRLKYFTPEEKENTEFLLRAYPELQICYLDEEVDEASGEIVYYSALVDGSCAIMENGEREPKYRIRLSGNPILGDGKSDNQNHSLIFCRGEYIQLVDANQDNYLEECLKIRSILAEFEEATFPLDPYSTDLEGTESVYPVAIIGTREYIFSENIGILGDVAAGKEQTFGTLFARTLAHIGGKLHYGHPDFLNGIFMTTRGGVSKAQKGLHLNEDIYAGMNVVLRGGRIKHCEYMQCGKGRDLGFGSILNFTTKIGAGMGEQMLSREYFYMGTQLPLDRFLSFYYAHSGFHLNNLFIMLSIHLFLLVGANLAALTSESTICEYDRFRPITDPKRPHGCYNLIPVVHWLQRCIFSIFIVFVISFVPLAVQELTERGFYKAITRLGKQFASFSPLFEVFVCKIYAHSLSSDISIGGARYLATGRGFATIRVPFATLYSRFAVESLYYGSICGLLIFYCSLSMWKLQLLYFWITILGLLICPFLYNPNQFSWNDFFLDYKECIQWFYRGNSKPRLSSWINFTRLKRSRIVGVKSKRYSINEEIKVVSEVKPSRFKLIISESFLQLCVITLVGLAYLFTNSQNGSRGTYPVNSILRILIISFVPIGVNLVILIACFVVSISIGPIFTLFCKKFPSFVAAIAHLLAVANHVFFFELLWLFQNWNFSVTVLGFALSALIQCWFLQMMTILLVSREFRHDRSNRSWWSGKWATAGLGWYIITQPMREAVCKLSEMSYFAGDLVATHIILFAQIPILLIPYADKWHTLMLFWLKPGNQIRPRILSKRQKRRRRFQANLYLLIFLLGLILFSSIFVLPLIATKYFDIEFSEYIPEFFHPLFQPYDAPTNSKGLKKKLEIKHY

[5] = test system: Candida parapsilosis; assay: Ratio of MIC for Candida parapsilosis to MIC for Candida parapsilosis in presence of 50% human serum; format: functional
[6] = test system: Aspergillus niger; assay: Ratio of MIC for Aspergillus flavus to MIC for Aspergillus niger in presence of 50% human serum; format: functional
[7] = test system: Nakaseomyces glabratus; assay: Ratio of MIC for Candida glabrata to MIC for Candida glabrata in presence of 50% mouse serum; format: functional
[8] = target: T1, Glucan synthase; assay: Inhibition of glucan synthase in Candida albicans ATCC 36082 in presence of 10% human serum
[9] = Inhibition of glucan synthase in Aspergillus fumigatus R21 in presence of 20% human serum
[10] = target: T1, Glucan synthase; assay: Inhibition of glucan synthase in Candida albicans ATCC 90028
[11] = Inhibition of glucan synthase in Aspergillus fumigatus MF5668 in presence of 20% human serum
[12] = target: T1, Glucan synthase; assay: Inhibition of glucan synthase in Candida albicans ATCC 90028 in presence of 50% human serum
[13] = target: T1, Glucan synthase; assay: Inhibition of glucan synthase in Candida albicans SC5314 in presence of 10% human serum
[14] = test system: Candida albicans; assay: Ratio of MIC for Candida albicans to MIC for Candida albicans in presence of 50% human serum; format: functional
[15] = Inhibition of glucan synthase in Aspergillus fumigatus ATCC 13073 in presence of 50% human serum
[16] = Inhibition of glucan synthase in Aspergillus fumigatus MF5668 in presence of 10% human serum
[17] = target: T1, Glucan synthase; assay: Inhibition of glucan synthase in Candida albicans SC5314 in presence of 20% human serum
[18] = test system: Candida tropicalis; assay: Ratio of MIC for Candida tropicalis to MIC for Candida tropicalis in presence of 50% human serum; format: functional
[19] = Inhibition of glucan synthase in Aspergillus fumigatus MF5668
[20] = Inhibition of glucan synthase in Aspergillus fumigatus ATCC 13073 in presence of 20% human serum
[21] = target: T1, Glucan synthase; assay: Inhibition of glucan synthase in Candida albicans ATCC 36082
[22] = test system: Candida albicans; assay: Antifungal activity against Candida albicans 36082 infected BALB/c mouse assessed as fungal kidney burden after 14 days; format: functional; settings: 336 h
[23] = Inhibition of glucan synthase in Aspergillus fumigatus MF5668 in presence of 50% human serum
[24] = target: T1, Glucan synthase; assay: Inhibition of glucan synthase in Candida albicans ATCC 90028 in presence of 20% human serum
[25] = test system: Pichia kudriavzevii; assay: Ratio of MIC for Candida krusei to MIC for Candida krusei in presence of 50% human serum; format: functional
[26] = target: T1, Glucan synthase; assay: Inhibition of glucan synthase in Candida albicans ATCC 90028 in presence of 10% human serum
[27] = target: T1, Glucan synthase; assay: Inhibition of glucan synthase in Candida albicans ATCC 36082 in presence of 50% human serum
[28] = Inhibition of glucan synthase in Aspergillus fumigatus R21 in presence of 10% human serum
[29] = test system: Aspergillus flavus; assay: Ratio of MIC for Aspergillus flavus to MIC for Aspergillus flavus in presence of 50% human serum; format: functional
[30] = Inhibition of glucan synthase in Aspergillus fumigatus ATCC 13073
[31] = target: T1, Glucan synthase; assay: Inhibition of glucan synthase in Candida albicans ATCC 36082 in presence of 20% human serum
[32] = target: T1, Glucan synthase; assay: Inhibition of glucan synthase in Candida albicans SC5314 in presence of 50% human serum
[33] = Inhibition of glucan synthase in Aspergillus fumigatus R21
[34] = Inhibition of glucan synthase in Aspergillus fumigatus R21 in presence of 50% human serum
[35] = target: T1, Glucan synthase; assay: Inhibition of glucan synthase in Candida albicans 36082 assessed as incorporation of [3H]uridine diphosphoglucose
[36] = target: T1, Glucan synthase; assay: Inhibition of glucan synthase in Candida albicans 36082 assessed as incorporation of [3H]uridine diphosphoglucose in presence of 50% serum
[37] = target: T1, Glucan synthase; assay: Inhibition of glucan synthase in Candida albicans 36082 assessed as incorporation of [3H]uridine diphosphoglucose in presence of 20% serum
[38] = target: T1, Glucan synthase; assay: Inhibition of glucan synthase in Candida albicans 36082 assessed as incorporation of [3H]uridine diphosphoglucose in presence of 10% serum

SMILES	IC50 [1] [ng/mL]	Ratio [2]	Ratio [3]	IC50 [4] [nM]	Ratio [5]	Ratio [6]	Ratio [7]	IC50 [8] [nM]	IC50 [9] [ng/mL]	IC50 [10] [nM]	IC50 [11] [ng/mL]	IC50 [12] [nM]	IC50 [13] [nM]	Ratio [14]	IC50 [16] [ng/mL]	IC50 [17] [nM]	Ratio [18]	IC50 [19] [ng/mL]	IC50 [20] [ng/mL]	IC50 [21] [nM]	other results
CCCCCOc1ccc(-c2cc(-c3ccc(C(=O)N[C@H]4C[C@@H](O)[C@@H](O)NC(=O)[C@@H]5[C@@H](O)[C@@H](C)CN5C(=O)[C@H]([C@H](O)CC(N)=O)NC(=O)[C@H]([C@H](O)[C@@H](O)c5ccc(O)c(OS(=O)(=O)O)c5)NC(=O)[C@@H]5C[C@@H](O)CN5C(=O)[C@H]([C@@H](C)O)NC4=O)cc3)no2)cc1 [MICAFUNGIN] (X1-[Orn(4R-OH,5R-OH)]T[Hyp][hTyr(3S-OH,4S-OH,3'-OSO3H)][Gln(3R-OH)][Pro(3S-OH,4S-Me)]; lactam 1-C)	4.7	32	64	21.2	8	133	64	18.7	10.3	14.2	3.3	71	25.7	64	3.2	39.8	128	2.2 (≈ 1.73 nM)	7.5	8.5	IC50 [15]: 9.8 ng/mL; ED90 [22]: 1.97 mg/kg; ED99 [22]: 3.71 mg/kg; IC50 [23]: 7.6 ng/mL; IC50 [24]: 39.4 nM; Ratio [25]: 133; IC50 [26]: 22.4 nM; IC50 [27]: 44.9 nM; IC50 [28]: 6.2 ng/mL; Ratio [29]: 33; IC50 [30]: 2 ng/mL (≈ 1.57 nM); IC50 [31]: 24.7 nM; IC50 [32]: 70.6 nM; IC50 [33]: 3.7 ng/mL (≈ 2.91 nM); IC50 [34]: 23.2 ng/mL
CCCCCOc1ccc(-c2ccc(-c3ccc(C(=O)N[C@H]4C[C@@H](O)[C@@H](O)NC(=O)[C@@H]5[C@@H](O)[C@@H](C)CN5C(=O)[C@H]([C@@H](C)O)NC(=O)[C@H]([C@H](O)[C@@H](O)c5ccc(O)cc5)NC(=O)[C@@H]5C[C@@H](O)CN5C(=O)[C@H]([C@@H](C)O)NC4=O)cc3)cc2)cc1 [ANIDULAFUNGIN] ({pTerphenylCO(4''-OnC5H11)}-[Orn(4R-OH,5R-OH)]T[Hyp][hTyr(3S-OH,4S-OH)]T[Pro(3S-OH,4S-Me)]; lactam 1-C)	21.4	16	32	15	8	32	64	21	3.1	0.877	6.9	21.7	13.4	16	5.5	65.5	128	0.29 (≈ 0.254 nM)	77.4	16.2	IC50 [35]: 0.88 nM; IC50 [36]: 25.8 nM; ED90 [22]: 1.17 mg/kg; ED99 [22]: 1.36 mg/kg; IC50 [23]: 28.1 ng/mL; IC50 [24]: 16.3 nM; Ratio [25]: 32; IC50 [26]: 4.14 nM; IC50 [37]: 16.4 nM; IC50 [28]: 1.9 ng/mL; Ratio [29]: 32; IC50 [30]: 13.3 ng/mL (≈ 11.7 nM); IC50 [31]: 62.7 nM; IC50 [32]: 78.1 nM; IC50 [33]: 0.75 ng/mL (≈ 0.658 nM); IC50 [38]: 4.14 nM; IC50 [34]: 11.9 ng/mL
CC[C@H](C)C[C@H](C)CCCCCCCCC(=O)N[C@H]1C[C@@H](O)[C@@H](NCCN)NC(=O)[C@@H]2[C@@H](O)CCN2C(=O)[C@H]([C@H](O)CCN)NC(=O)[C@H]([C@H](O)[C@@H](O)c2ccc(O)cc2)NC(=O)[C@@H]2C[C@@H](O)CN2C(=O)[C@H]([C@@H](C)O)NC1=O [CASPOFUNGIN]	2.8	4	11	13.4	4	8	4	2.56	3.6	0.274	3.2	5.76	24.7	2	1	33.8	4	1.1 (≈ 1.01 nM)	5.9	0.823	IC50 [35]: 0.302 nM; IC50 [15]: 9.4 ng/mL; IC50 [36]: 5.69 nM; ED90 [22]: 1.05 mg/kg; ED99 [22]: 1.1 mg/kg; IC50 [23]: 4.8 ng/mL; IC50 [24]: 1.92 nM; Ratio [25]: 8; IC50 [26]: 1.19 nM; IC50 [27]: 7.96 nM; IC50 [37]: 1.9 nM; IC50 [28]: 2.7 ng/mL; Ratio [29]: 8; IC50 [30]: 2 ng/mL (≈ 1.83 nM); IC50 [31]: 4.85 nM; IC50 [32]: 73.6 nM; IC50 [33]: 1.6 ng/mL (≈ 1.46 nM); IC50 [38]: 1.21 nM; IC50 [34]: 10.3 ng/mL

From ChEMBL document CHEMBL1145468, “Serum differentially alters the antifungal properties of echinocandin drugs” (Antimicrob Agents Chemother, 2007)
